Experimental data taken from patent US8283355B2, “Pyrimidine derivatives as POSH and POSH-AP inhibitors” (Proteologics, Ltd., priority 2006, dated 2012).
Read-outs that look alike come from different tables or passages of the source.

How the values were obtained:
[1] = system: HIV-2ROD; assay: HIV cytoprotection assay, HIV-2ROD in CEM-SS cells (MTS); format: cell-based; settings: for IC50: read-out: IC50 (concentration inhibiting virus replication by 50%)
Description: (§1) For the HIV cytoprotection assay, CEM-SS cells were used and the viruses HIV-1IIIb, HIV-1RF, or HIV-2ROD.
(§2) Briefly, virus and cells were mixed in the presence of a test compounds and incubated for 6 days. […] Each assay plate contained the following controls: cell control wells (cells only), virus control wells (cells plus virus), compound toxicity control wells (cells plus compound only), compound calorimetric control wells (compound only), as well as the experimental wells (compound plus cells plus virus). Cytoprotection and compound cytotoxicity were assessed by MTS (CellTiter® 96 Reagent, Promega, Madison Wis.) dye reduction, and the IC50 (concentration inhibiting virus replication by 50%), TC50 (concentration resulting in 50% cell death) and a calculated TI (therapeutic index TC50/IC50) were obtained. Each assay included the HIV reverse transcriptase inhibitor AZT as a positive control.

[2] = system: HIV-1 p24 release from Jurkat cells; assay: Assay for virus release (HIV-1 p24 / VLP release from transfected Jurkat cells); format: cell-based; settings: Human immunodeficiency virus 1, Jurkat, 24 h, read-out: IC50 in the virus release assay
Description: The POSH inhibitor Compound 1 was tested for its efficiency of viral budding and GAG expression and processing in treated and untreated Jurkat cells. The concentration of extracellular GAG p24 was used as an indication of viral budding.
Jurkat cells were incubated with Compound 1 (5 μM) for either 1 or 3 days. The next day, cells were transfected with the plasmid pNLenyl (2 μg/ml). Virus-like particle (VLP) release was determined one day after transfection as follows: the culture medium of virus-expressing cells was collected and centrifuged at 500×g for 10 minutes. The resulting supernatant was passed through a 0.45 μm-pore filter and the filtrate was centrifuged at 14,000×g for 2 hours at 4° C. The corresponding cells were washed three times with phosphate-buffered saline (PBS) and then solubilized by incubation on ice for 15 minutes in lysis buffer containing the following components: […] Hepes-NaOH, (pH 7.5), 150 mM NaCl, 1.5 mM MgCl2, 0.3% NP-40, 0.5% sodium deoxycholate, 1 mM EDTA, 1 mM EGTA and 1:200 dilution of protease inhibitor cocktail (EMD Biosciences, Inc.). The cell detergent extract was then centrifuged for 15 minutes at 14,000×g at 4° C. […] Enhanced Chemi-Luminescence (ECL) (Amersham Biosciences, Corp.) was then detected by fluorescence imaging (Typhoon Instrument, Amersham Biosciences, Corp.).

[3] = target: T1, GST tagged hPOSH (Homo sapiens, UniProt Q7Z6J0); assay: HTS TR-FRET assay of POSH autoubiquitination; format: biochemical; settings: GST tagged hPOSH with E1, UbCH5c, ubiquitin-cryptate, read-out: IC50 (POSH autoubiquitination, in vitro assay)
T1 construct: a fused GST-RING subunit of POSH protein
T1 sequence (Q7Z6J0 12-53 limits assumed): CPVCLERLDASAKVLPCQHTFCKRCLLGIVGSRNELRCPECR
Description: In order to test compounds as inhibitors of POSH, a ubiquitin protein ligase (E3) containing a RING domain that mediates its own ubiquitination in a RING finger-dependent manner in the presence of E1 and E2, a HTS (high-throughput screening) homogeneous TR-FRET (Time-Resolved Fluorescence Resonance Energy Transfer) assay was conducted to monitor POSH autoubiquitination.
The assay employs an ubiquitin-activating enzyme (E1) and an ubiquitin-conjugating enzyme (E2), a fused GST-RING subunit of POSH protein and two fluorophore-conjugated detection reagents, namely anti-GSTXL665 and europium cryptate-labeled ubiquitin. This homogeneous assay is based on FRET between a Eu^3+ cryptate donor and a second fluorescent label (acceptor), allophycocyanin. Allophycocyanin, a 105 kDa phycobiliprotein, is crosslinked to ensure its stability.
The ubiquitination of POSH by ubiquitin cryptate and binding of the anti-GST tagged XL665 brings the fluorophores into close proximity allowing FRET reaction to occur.
Self-ubiquitination of hPOSH was determined by homogenous time-resolved fluorescence resonance energy transfer assay (TR-FRET). […]
where: S=actual fluorescence, B=Fluorescence obtained in parallel incubation without […], C=Fluorescence obtained in reaction without added compounds. […]

[4] = Compound cytotoxicity in CEM-SS cells (MTS); format: cell-based; settings: human, read-out: TC50 (concentration resulting in 50% cell death)
Description: as §1, §2

[5] = system: HIV-1IIIB; assay: HIV cytoprotection assay, HIV-1IIIB in CEM-SS cells (MTS); format: cell-based; settings: for IC50: read-out: IC50 (concentration inhibiting virus replication by 50%)
Description: as §1, §2

[6] = Human immunodeficiency virus 1, 144 h, HIV-1IIIB, CEM-SS cells, 6 days

Structure (SMILES) | Antiviral Index (TI), TC50/IC50 ([1]; HIV-2ROD, CEM-SS cells) | IC50 ([1]; Human immunodeficiency virus 2, CEM-SS, 144 h) | IC50 [2] | IC50 [3] | CC50 at 6 days ([4]; Table 1 (HIV-1IIIB experiment)) | CC50 at 6 days ([4]; Table 2 (HIV-2ROD experiment)) | Antiviral Index (TI), TC50/IC50 ([5]; HIV-1IIIB, CEM-SS cells) | IC50 ([5]; Human immunodeficiency virus 1, CEM-SS, 144 h) | IC50 ([1]; Human immunodeficiency virus 2, 144 h, HIV-2ROD, CEM-SS cells, 6 days) | IC50 [5, 6] | Effectiveness as anti-HIV-1IIIB agent compared to Compounds 1 and 2 ([5]; HIV-1IIIB, CEM-SS cells)
Cc1cc(C)nc(NS(=O)(=O)c2ccc(NC(=O)/C(=C\c3cccs3)NC(=O)c3cccs3)cc2)n1 [Compound 1] | >5.68 | 52.8 µM | 48 µM | 2 µM | > 100 µM | > 300 µM | >2.07 | 48 µM |  |  | 
O=C(Nc1ccc(S(=O)(=O)Nc2ncccn2)cc1)/C(=C\c1cccs1)NC(=O)c1cccs1 [Compound 2] | >10.2 |  |  |  | 114 µM | > 300 µM | 28.5 |  | 29.5 µM | 3.99 µM | 
Cc1ccnc(NS(=O)(=O)c2ccc3c(c2)CCN3C(=O)/C(=C\c2cccs2)NC(=O)c2cccs2)n1 [Compound 5] |  |  |  |  | > 300 µM |  | >105 |  |  | 2.85 µM | far more effective
